Values of other authors as cited in paper PMC10063609, “Discovery of novel cardiac troponin activators using fluorescence polarization-based high throughput screening assays” (Scientific Reports, 2023).
pKd: −log10 of the molar value.

Experiments:
[1] = system: CcTnC and cTnIAR interaction; design: method as in PMID 11320096, PMID 10913289; conditions: NMR spectroscopy; cited from earlier work
CcTnC = system: CcTnC; design: method as in PMID 11320096, PMID 10913289; conditions: cited from earlier work
[2] = target: interaction between cTnC and switch peptide of cTnI (cTnISP) (Homo sapiens, UniProt P63316); design: method as in PMID 33315370; conditions: printed in Fig. 1c; assay previously published; cited from earlier work
Ca2+-saturated cChimera = system: Ca2+-saturated cChimera; design: method as in PMID 35755445; conditions: cited from earlier work
[3] = target: Ca2+-saturated N-lobe of cTnC; design: method as in PMID 35755445; conditions: isolated Ca2+-saturated N-lobe of cTnC; cited from earlier work

In the case of `COc1ccc(C(=O)N2CCCc3cc(C4=NNC(=O)SC4C)ccc32)cc1OC` (centres unmarked) [EMD 57033], the “Effect on the CcTnC and cTnIAR interaction in vitro” value [1] is listed as “no significant effect” and the Affinity (CcTnC) is listed as “micromolar affinity”.

For “FAM-A162H-cTnISP: N-terminally FAM labelled A162H-mutated switch region peptide of human cardiac troponin I, sequence TLRRVRISADAMMQALLGARHKESLDLR”, the pKd [2] is listed as about 5.00.

For `O=C(O)c1ccc(-c2ccccc2Nc2cccc(Cl)c2)cc1` [RPI-194], the Affinity (Ca2+-saturated cChimera) is listed as “low micromolar affinity” and the pKd [3] is listed as under 3.52.
